Measured values published in patent US10758530B2, “Carboxamide derivatives useful as rsk inhibitors” (PHOENIX MOLECULAR DESIGNS, priority 2016, dated 2020).
“Also recorded” adds a separate entry of the source. Where a name gives a salt, the structure may show the parent alone.

Tests used:
SUM149-PTXR [1] = test: Monolayer growth inhibition, Alamar blue assay; assay type: cell-based; conditions: Homo sapiens, 120 h; TNBC, BRCA mutant; 5 days, single dose
Description: (§2) 1×10^3 cells per well were seeded for a final volume of 200 μl per well and plates were incubated for 5 days at 37° C. in a humidified incubator with 5% CO2. Following the incubation period, cell survival was quantified by Alamar blue assay (Life Technologies). Briefly, media from each well was replaced with 100 μl of phosphate buffer saline (PBS, Life Technologies) and cells were incubated with 5% Alamar blue, which incorporates a propriety redox indicator that changes colour in response to metabolic activity, for up to 2 hours. During this period of incubation, the absorbance at 570 nm and 600 nm was measured at various time points, depending on the cell line or sample. Percent survival was calculated by comparing the absorbance ratio of the test well to the control well multiplied by 100%, as indicated in the following formula:

[2] = system: All cell lines of Tables 6A/6B; test: Monolayer growth inhibition, Alamar blue assay, range over all cell lines; assay type: cell-based; conditions: 120 h, read-out: IC50 Values - Alamar Blue (5 Days), Range, All
Description: as §2

SUM149-PTXR [3] = test: Monolayer growth inhibition, crystal violet assay; assay type: cell-based; conditions: Homo sapiens, 120 h; TNBC, BRCA mutant; 5 days, single dose
[4] = system: All cell lines of Tables 7A/7B; test: Monolayer growth inhibition, crystal violet assay, range over all cell lines; assay type: cell-based; conditions: 120 h, read-out: IC50 Values - Crystal Violet (5 Days), Range, All
[5] = Solubility assessment (20 mg/ml solution, precipitate formation, pH strips); assay type: physicochemical; conditions: for Solubility, 20 mg/ml solution: dissolved in DMSO (100 mM); for pH of 20 mg/ml solution: dissolved in DMSO
Description: Solubility is an important property for therapeutic drug candidates. Poor solubility can lead to low bioavailability resulting in suboptimal drug delivery. It can also prevent the evaluation of test agents in animals because the concentration(s) needed to achieve the desired effect cannot be achieved to poor solubility. For solubility assessments, small molecules targeting RSK were compared. For these assessments, 100 mM solutions of the compounds dissolved in DMSO were diluted in DMEM growth media (Life Technologies) supplemented with fetal bovine serum (FBS, Life Technologies) and 100 units/ml penicillin and 100 units/mi streptomycin (Life Technologies) to make 20 mg/ml solutions. Once diluted, the solutions were vortexed and examined for the formation of precipitates. […] For Compound 26, a 100 mM solution of the compound dissolved in DMSO was diluted in phosphate buffered saline (Life Technologies) to make a 20 mg/ml solution. The stock of […] was chosen because this is the upper end of what would be required to dose mice for a range of studies including MTD, PK, PD and efficacy. The pH of this solution was determined to be 2, as previously described. […] At high concentrations some RSK inhibitors were highly soluble while others were not. Compound 0 is (R)—N-(1-benzyl-1H-pyrazol-4-yl)-9-methyl-6-oxo-6,7,8,9-tetrahydropyrido[3′,2′:4,5]pyrrolo[1,2-a]pyrazine-2-carboxamide. Compound 0 was not soluble, whereas Compounds 18, 20, 21, 25 and 26 were soluble under the same conditions (Table 5).

[6] = system: phosphorylated Y-box binding protein-1 (YB-1) at serine 102 (P-YB-1 S102); test: Immunoblotting of P-YB-1 (cell signalling inhibition) in MDA-MB-231 cells
Description: Generation of cellular extracts: Following desired experimental conditions, breast cancer cell lines grown and treated in 6 well plates or 100 mm culture dishes (Grenier Bio-One) were placed on ice and the supernatant from each well was removed and the cells were washed in cold PBS. Following removal of PBS, cells were exposed to radioimmunoprecipitation assay (RIPA) buffer (50 mM Tris-HCl (pH 8), 150 mM NaCl, 1% NP-40, 0.5% sodium deoxycholate, 0.1% SDS; Fisher Scientific) supplemented with 1% phosphatase inhibitor (Fisher Scientific) and 1% protease inhibitor (Fisher Scientific) for 10 minutes. Samples were transferred to eppendorf tubes, vortexed and then centrifuged at 14 000 rpm for 10 minutes. Supernatants were collected as whole cell lysates. For mouse tumour tissues, each sample was place in a 35 mm culture dish with complete RIPA lysis buffer. The samples were diced in the buffer on ice with a sterile scalpel (VWR) and the buffer and tissue were transferred to an eppendorf tube. The samples were left on ice for 10 minutes with periodic vortexing every 2 to 3 minutes. The samples were then transferred to a Qiashredder (Qiagen) and centrifuged at 14 000 rpm for 2 minutes. The flow through was transferred to a new eppendorf tube and the samples were centrifuged again at 14 000 rpm for 5 minutes. Supernatants were collected as whole cell lysates.
Immunoblotting: To begin, the protein content of the lysates was measured using the Bicinchoninic Acid (BCA) Protein Assay Kit (Pierce), which included a protein standard curve generated with bovine serum albumin. […] For certain immunoblots, bands of proteins of interest were scanned and band intensity ratios were determined by densitometric analysis (ImageJ). […] To assess whether cells are actively undergoing cell death, the activity of poly ADP ribose polymerase (PARP) (1:1000 CST) was also measured using the immunoblotting method.

P-YB-1 = test: Pharmacodynamics: P-YB-1 signalling in MDA-MB-231 xenograft tumors (immunoblotting); conditions: n=3 treated 3 days, n=9 treated 21 days
Description: For mouse tumour tissues, each sample was place in a 35 mm culture dish with complete RIPA lysis buffer. The samples were diced in the buffer on ice with a sterile scalpel (VWR) and the buffer and tissue were transferred to an eppendorf tube. The samples were left on ice for 10 minutes with periodic vortexing every 2 to 3 minutes. The samples were then transferred to a Qiashredder (Qiagen) and centrifuged at 14 000 rpm for 2 minutes. The flow through was transferred to a new eppendorf tube and the samples were centrifuged again at 14 000 rpm for 5 minutes. Supernatants were collected as whole cell lysates.
Immunoblotting: To begin, the protein content of the lysates was measured using the Bicinchoninic Acid (BCA) Protein Assay Kit (Pierce), which included a protein standard curve generated with bovine serum albumin. Appropriate volumes of samples and loading buffer (50 mM Tris-HCl (pH 6.8), 2% SDS, 10% glycerol, 1% 3-mercaptoethanol, 12.5 mM EDTA, 0.02% bromophenol blue) were mixed, ensuring that equal amounts of protein were loaded. For the majority of experiments in this study, 30 μg of protein per well was loaded. […] For certain immunoblots, bands of proteins of interest were scanned and band intensity ratios were determined by densitometric analysis (ImageJ). […]
Cell signalling was evaluated by immunoblotting. […]

HLA-DRA mRNA = HLA-DRA mRNA expression in MDA-MB-231 and JIMT-1 cells; assay type: cell-based, Human; conditions: Compound 16 2 or 4 uM; Compound 18 1, 2, or 4 uM
From the text: (§1) A key feature of cancer is low immunogenicity. This can occur by several mechanisms that allow the cells to escape immune recognition. […] HLA-DRA is a member of MHC-II genes and CIITA is the master regulator of MHC II transcription. Thus it was surprising that CIITA, which would be expected to regulate MHC II gene expression, was not altered by RSK inhibition. […] HLA-DRA is important for immune recognition while PD-L1 is involved in immune checkpoints.

CIITA = CIITA mRNA expression in MDA-MB-231 and JIMT-1 cells; assay type: cell-based, Human; conditions: Compound 16 2 or 4 uM; Compound 18 1, 2, or 4 uM
From the text: as §1

CD274 [7] = test: CD274 (PD-L1 gene) expression in MDA-MB-231 cells; assay type: cell-based, Human; conditions: Compound 16 2 or 4 uM; Compound 18 1, 2, or 4 uM
From the text: as §1

CD274 [8] = test: CD274 (PD-L1 gene) expression in JIMT-1 cells; assay type: cell-based, Human; conditions: 1-20 uM
From the text: as §1

[9] = diluted in DMEM, hydrochloride salt
[10] = diluted in PBS, hydrochloride salt

Row | Structure (SMILES) | IC50 (SUM149-PTXR [1]) [µM] | IC50 [2] [µM] | IC50 (SUM149-PTXR [3]) [µM] | IC50 [4] [µM] | Solubility, 20 mg/ml solution ([5]; diluted in DMEM) | also measured
1 | C[C@@H]1CNC(=O)c2cc3ccc(C(=O)Nc4cnn(Cc5ccccc5N)c4)nc3n21 [Compound 17, (R)—N-(1-(2-aminobenzyl)-1H-pyrazol-4-yl)-9-methyl-6-oxo-6,7,8,9-tetrahydropyrido[3′,2′:4,5]pyrrolo[1,2-a]pyrazine-2-carboxamide] | 4.2 ± 1.5 | 1.2 to 12.6 | 5.2 ± 0.6 | 1 to 8.9 | – | –
2 | C[C@@H]1CNC(=O)c2cc3ccc(NC(=O)c4cnn(Cc5cccc(N)c5)c4)nc3n21 [Compound 19, (R)-1-(3-aminobenzyl)-N-(9-methyl-6-oxo-6,7,8,9-tetrahydropyrido[3′,2′:4,5]pyrrolo[1,2-a]pyrazin-2-yl)-1H-pyrazole-4-carboxamide] | 14.1 ± 4.3 | 10.5 to 37.3 | 13 ± 1.3 | 7.4 to 34 | – | –
3 | C[C@@H]1CNC(=O)c2cc3ccc(C(=O)Nc4cnn(Cc5ccc(N)cc5)c4)nc3n21 [Compound 25, (R)—N-(1-(4-aminobenzyl)-1H-pyrazol-4-yl)-9-methyl-6-oxo-6,7,8,9-tetrahydropyrido[3′,2′:4,5]pyrrolo[1,2-a]pyrazine-2-carboxamide hydrochloride salt] | 5.2 ± 4.2 | – | – | – | – | Solubility for systemic delivery in mice (qualitative) [5]: superior solubility; Solubility, 20 mg/ml solution [5, 9]: Soluble; pH of 20 mg/ml solution [5, 9]: 2; Loss of P-YB-1 ([6]; 0.01, 0.1, 1, or 10 uM, 24 hrs): dose dependent loss of P-YB-1; Tumors with reduced P-YB-1 signaling (3 and 21 days combined) (P-YB-1): 12/12
4 | C[C@@H]1CNC(=O)c2cc3ccc(C(=O)Nc4cnn(Cc5cccc(N)c5)c4)nc3n21 [Compound 16, (R)—N-(1-(3-aminobenzyl)-1H-pyrazol-4-yl)-9-methyl-6-oxo-6,7,8,9-tetrahydropyrido[3′,2′:4,5]pyrrolo[1,2-a]pyrazine-2-carboxamide] | 2.5 ± 0.4 | 0.9 to 17.4 | 3.5 ± 1.2 | 1.2 to 13.3 | – | HLA-DRA mRNA levels (HLA-DRA mRNA): elevated levels of HLA-DRA mRNA; mRNA expression of CIITA (CIITA): little effect; Levels of CD274 in MDA-MB-231 cells (CD274 [7]): reduced levels of CD274; Loss of P-YB-1 ([6]; 0.01-1 uM, 96 hrs): dose dependent loss of P-YB-1
5 | C[C@@H]1CNC(=O)c2cc3ccc(NC(=O)c4cnn(Cc5ccccc5)c4)nc3n21 [Compound 15, (R)-1-benzyl-N-(9-methyl-6-oxo-6,7,8,9-tetrahydropyrido[3′,2′:4,5]pyrrolo[1,2-a]pyrazin-2-yl)-1H-pyrazole-4-carboxamide] | 9.2 ± 3 | 3.6 to 21.3 | 8.8 ± 2.2 | 5.9 to 21 | – | –
6 | C[C@@H]1CNC(=O)c2cc3ccc(C(=O)Nc4cnn(Cc5ccc(C(F)(F)F)cc5)c4)nc3n21 [Compound 22, (R)-9-methyl-6-oxo-N-(1-(4-(trifluoromethyl)benzyl)-1H-pyrazol-4-yl)-6,7,8,9-tetrahydropyrido[3′,2′:4,5]pyrrolo[1,2-a]pyrazine-2-carboxamide] | 7.8 ± 4.6 | 4.5 to 17.1 | 8 ± 1.3 | 2.6 to 14.2 | Precipitate | –
7 | C[C@@H]1CNC(=O)c2cc3ccc(C(=O)Nc4cnn(Cc5ccccc5)c4)nc3n21 [Compound 0, (R)—N-(1-benzyl-1H-pyrazol-4-yl)-9-methyl-6-oxo-6,7,8,9-tetrahydropyrido[3′,2′:4,5]pyrrolo[1,2-a]pyrazine-2-carboxamide, reference compound] | – | – | – | – | not soluble; also recorded: Precipitate | Solubility for systemic delivery in mice (qualitative) [5]: poor or nonexistent solubility
8 | C[C@@H]1CNC(=O)c2cc3ccc(C(=O)Nc4cnn(Cc5ccc(N)cc5)c4)nc3n21 [Compound 18, (R)—N-(1-(4-aminobenzyl)-1H-pyrazol-4-yl)-9-methyl-6-oxo-6,7,8,9-tetrahydropyrido[3′,2′:4,5]pyrrolo[1,2-a]pyrazine-2-carboxamide] | – | – | – | – | Soluble | pH of 20 mg/ml solution ([5]; diluted in DMEM): 9; HLA-DRA mRNA levels (HLA-DRA mRNA): elevated levels of HLA-DRA mRNA; mRNA expression of CIITA (CIITA): little effect; Levels of CD274 in MDA-MB-231 cells (CD274 [7]): reduced levels of CD274; CD274 in JIMT-1 cells (CD274 [8]): inhibited CD274; Loss of P-YB-1 ([6]; 0.01-1 uM, 96 hrs): dose dependent loss of P-YB-1
9 | C[C@@H]1CNC(=O)c2cc3ccc(NC(=O)c4cnn(Cc5ccccc5)c4)cc3n21 [Compound 11, (R)-1-benzyl-N-(4-methyl-1-oxo-1,2,3,4-tetrahydropyrazino[1,2-a]indol-7-yl)-1H-pyrazole-4-carboxamide] | 36.4 ± 11.9 | – | 44.6 ± 3.9 | – | – | –
10 | C[C@@H]1CNC(=O)c2cc3ccc(C(=O)Nc4cnn(Cc5ccc(F)cc5F)c4)nc3n21 [Compound 23, (R)—N-(1-(2,4-difluorobenzyl)-1H-pyrazol-4-yl)-9-methyl-6-oxo-6,7,8,9-tetrahydropyrido[3′,2′:4,5]pyrrolo[1,2-a]pyrazine-2-carboxamide] | 5.1 ± 4 | 1.1 to 19.8 | 5 ± 2.4 | 1.1 to 15 | Precipitate | –
11 | C[C@@H]1CNC(=O)c2cc3ccc(C(=O)Nc4cnn(CC5CCN(C)CC5)c4)nc3n21 [Compound 20, (R)-9-methyl-N-(1-((1-methylpiperidin-4-yl)methyl)-1H-pyrazol-4-yl)-6-oxo-6,7,8,9-tetrahydropyrido[3′,2′:4,5]pyrrolo[1,2-a]pyrazine-2-carboxamide] | – | – | – | – | Soluble | pH of 20 mg/ml solution ([5]; diluted in DMEM): 8
12 | C[C@@H]1CNC(=O)c2cc3ccc(C(=O)Nc4ccccc4C(N)=O)nc3n21 [Compound 21, (R)—N-(2-carbamoylphenyl)-9-methyl-6-oxo-6,7,8,9-tetrahydropyrido[3′,2′:4,5]pyrrolo[1,2-a]pyrazine-2-carboxamide] | 1.5 ± 0.8 | 1.2 to 14.7 | 2 ± 0.2 | 1.1 to 11.3 | Soluble | pH of 20 mg/ml solution ([5]; diluted in DMEM): 9
13 | C[C@@H]1CNC(=O)c2cc3ccc(C(=O)Nc4cnn(Cc5ccc(CN)cc5)c4)nc3n21 [Compound 26, (R)—N-(1-(4-(aminomethyl)benzyl)-1H-pyrazol-4-yl)-9-methyl-6-oxo-6,7,8,9-tetrahydropyrido[3′,2′:4,5]pyrrolo[1,2-a]pyrazine-2-carboxamide hydrochloride salt] | 8.8 ± 2.5 | 1.9 to 15.5 | 6.5 ± 2.1 | 1.5 to 12.3 | – | Solubility, 20 mg/ml solution [5, 10]: Soluble; pH of 20 mg/ml solution [5, 10]: 2-9
14 | C[C@@H]1CNC(=O)c2c(Cl)c3ccc(C(=O)Nc4cnn(Cc5ccccc5)c4)nc3n21 [Compound 24, (R)—N-(1-benzyl-1H-pyrazol-4-yl)-5-chloro-9-methyl-6-oxo-6,7,8,9-tetrahydropyrido[3′,2′:4,5]pyrrolo[1,2-a]pyrazine-2-carboxamide] | 3.4 ± 2.1 | 0.5 to 12.3 | 4.5 ± 1.4 | 0.3 to 9.1 | Precipitate | –
